Assay results as given in publication PMC2635646, “Recognition Properties and Competitive Assays of a Dual Dopamine/Serotonin Selective Molecularly Imprinted Polymer” (International Journal of Molecular Sciences, 2008).
Counter-ions that a name gives are not always drawn. Like-named read-outs stand apart in the source and are kept apart here.

Key:
[1] = Time course of binding of ergot compounds to DS-MIP (HPLC-ECD assay); settings: 4:1 (v/v) methanol/water, 28 ± 1 °C
Description: The specificity of binding of a group of ergoline derivatives (ergocryptine, ergocornine, ergocristine, ergonovine, agroclavine, pergolide and terguride) to DS-MIP was assessed in 4:1 (v/v) methanol/water at room temperature (28 ± 1 °C). The binding of all the ergots to DS-MIP reached a constant value within 3 h, with ~50% of the DS-MIP-analyte complex being formed by 1 h (Figure 7). […] Based on the specific binding of the ergots to DS-MIP, the tested ergots are readily distinguished into three groups, based on their chemical structures. All of the ergot derivatives tested had typical four fused rings, indolyl amine, piperidinyl amine, and N-methyl and heteroatom-containing alkylpiperidinyl substituents (except pergolide with the N-propyl substituent). The differential binding of the ergot derivatives is probably a consequence of the interaction of the piperidinyl and indolyl amines with acidic and amide functions within the polymer. The orientation of functional entities within the D and S imprinted cavities was not optimal to complement the ergot derivatives, but they existed in sufficient numbers to produce the observed binding effect.
Figure 7. Time course for the binding of ergot compounds to DS-MIP at room temperature (28 ± 1 °C). Binding studies were conducted in 4:1 (v/v) methanol/water using 12.5 mg of polymer and 12.5 μg of each ergot in a final volume of 5 mL (4.1–10.5 μM). At equilibrium, analytes were quantitated in the filtrate by chromatographic assays as described in the Experimental Section. The values shown are mean ± SD of three replicate specimens.
The binding reactivities of ergocryptine, ergocristine, ergocornine, ergonovine, agroclavine, pergolide and terguride, in an incubation medium were evaluated using a chromatographic assay. Briefly, DS-MIP particulates (2.5 mg/mL) were incubated between 0 and 13 h in 10-mL vials at room temperature by agitation with each ergot compound (2.5 μg/mL, 4.1–10.5 μM) in methanol/water (5 mL, 4:1, v/v). At pre-determined time intervals, the filtrate was analysed for the amount of unbound substance by HPLC (see below). The percentage of ergot bound to the polymer was plotted as a function of the incubation time. Each experiment was repeated three times.
A reversed phase HPLC-ECD detection method was used for assay of the ergots. A mobile phase comprising of a buffer (pH 7.4) and methanol (34:66, % v/v) was used for elution. The buffer composition was as follows: 15 mM KH2PO4, 3.75 mM sodium heptanesulfonate and 7.5 mM KCl aqueous solution adjusted to pH 7.4 by phosphoric acid. The analytical column was a Luna 5μ C18, 25 cm × 0.46 cm (Phenomenex, CA, USA). A flow-rate of 1.0 mL/min was used. The electrochemical detector was set at 0.8 V potential. Correlation coefficients for calibration curves for the ergots in the range 2–25 μg/mL ([…]) were greater than 0.999. The sensitivity of detection was about 1.0 μg/mL (1.64–4.20 μM) and the reproducibility of the peak areas of analytes was more than 95%.

[2] = Competitive ligand binding assay on DS-MIP with D as fluorescent probe; settings: 25 mg polymer, D 6.60 μM, 5 mL 4:1 methanol/water, 28 ± 1 °C, mean ± SD, n = 3
Description: (§1) In this study, DS-MIP was employed as the sorbent phase for the determination of binding characteristics of the ergot family of alkaloids by competitive ligand binding assay experiment. The ability of the various ergot alkaloids (ergocryptine, ergocornine, ergocristine, ergonovine, agroclavine, pergolide and terguride) to displace bound D and S from the binding sites was measured. Figures 8(a,b) show competitive binding assays with the ergots in the presence of D and S as fluorescent probes. The typical sigmoid calibration curves were obtained for both the D ligand and the S ligand. […] Clearly, the ergot derivatives are able to act as competitors at the DS-MIP binding sites.
(§2) Figure 8. Plots of the ratio of the normalized signal (B/Bî) for MIP to that obtained for NIP against the logarithm of the ergot concentrations for the competitive ligand binding assay using DS-MIP as adsorbent phase and (a) D and (b) S as a fluorescent probe. The values shown are mean ± SD of three replicate specimens.
(§3) Seven ergoline compounds (ergocryptine, ergocristine, ergocornine, ergonovine, agroclavine, pergolide and terguride) were assessed for their ability to displace D or S bound to DS-MIP. DS-MIP or NIP particles (25 mg) were mixed with 6.25 μg of either D (or S) and varying amounts of ergot (final concentration: 0.02 - 500 μg/mL or 0.03 - 890.20 μM) in the suspension solvent (4:1, v/v methanol/water) up to a final volume of 5 ml. The mixture was incubated for 8 h at room temperature, maintaining constant stirring. The changes in fluorescence intensity of D probe in solution were monitored at 320 nm following excitation at 279 nm; for the S probe in solution, monitoring was at 335 nm after excitation at 300 nm. The experimental signals were normalized as: B/Bî, where B is the fluorescence intensity measured in the presence of increasing ergot concentrations and Bî is the signal in the absence of the ergot compound. The ratio of the normalized signal for MIP to that obtained for NIP was plotted as a function of the logarithm of the competitor concentration. Statistical analysis of concentration-response curves was performed by using the computer program GraphPad software, which calculates the lower and upper plateaus, the slope, and the IC50, concentration of an inhibitor producing 50% inhibition. An apparent inhibition constant (Ki) value was calculated using eq (3): (3) Ki=IC50/(1+[L]/Kd) where Ki = apparent inhibitor constant, [L] = free concentration of dopamine or serotonin, and Kd = apparent dissociation constant of a given MIP for D (or S). All experiments were performed in triplicate.

[3] = Competitive ligand binding assay on DS-MIP with S as fluorescent probe; settings: 25 mg polymer, S 5.90 μM, 5 mL 4:1 methanol/water, 28 ± 1 °C, mean ± SD, n = 3
Description: as §1, §2, §3

[4] = biological target: dopamine receptors derived from rat hypothalamus; assay: Displacement of D probe from natural receptor; format: binding, male-Wistar rat; settings: 10 mg protein, 0.25 μmole D in 1 mL (250 μM), 37 °C, mean ± SD, n = 4; read-out: Ki, D ligand, Rat hypothalamus
Description: (§4) The equilibrium binding constants of the ergots on dopamine and serotonin receptors derived from rat hypothalamus was examined in a displacement assay using the added D and S as the molecular probes. The male-Wistar rat hypothalami receptors were isolated using a previously described procedure. The receptor pellets were washed with 50 mM Tris HCl until the endogenous D and S are no longer found in the rinse as examined by the fluorescence method described in the binding study. The pellets were then re-suspended in 50 mM Tris HCl with 0.5 mM Na2EDTA, 0.1% Na ascorbate before use. The protein content of the receptor pellets was verified by using the procedure of Bradford. Saturation experiments for the rat hypothalamus receptor were carried out by varying the concentration of D or S ligand in a 50 mM Tris HCl with 0.5 mM Na2EDTA and 0.1% Na ascorbate solution at 37 °C. The D and S binding at various concentrations was determined, using the fluorescence spectroscopic method for assay of the unbound probe as in the binding study.
(§5) The ability of 6–8 concentrations of test ergot (0.1–500 μg/mL or 0.16–890.20 μM) for typical profiles) to displace 0.25 μmole D and S probes was measured in drug displacement studies. […] To examine the equilibrium binding constant for the ergots, the unbound D and S probes was measured by fluorescence spectroscopy with the use of cation exchange resin to separate the protein bound and unbound probes. All experiments were performed four times using 50 mM Tris HCl with 0.5 mM Na2EDTA, 0.1% Na ascorbate as the medium, to which 10 mg of protein was added giving a final volume of 1 mL. The tubes were allowed to equilibrate for 30 min at 37 °C before filtering with a 0.45 μm cellulose acetate syringe filter (Whatman, NJ, USA) and were washed with two 5 mL ice-cold Tris-buffer. The filters were lyophilized and analysed for free probes. The supernatant aliquots were then passed through small columns of Amberlite CG-50 as previously reported. The 3 mL of formic acid-ethanol (1:3, v/v) eluates containing the analytes were evaporated to dryness in a polyethylene vial and the residues reconstituted with methanol (5 mL) before assay using fluorescence spectrometry. The binding of D and S probes in the presence of the ergots was calculated and plotted to the ergot concentrations for determination of IC50. An apparent Ki value was calculated in the same manner as described for the competitive ligand binding assay with DS-MIP.

[5] = biological target: serotonin receptors derived from rat hypothalamus; assay: Displacement of S probe from natural receptor; format: binding, male-Wistar rat; settings: 10 mg protein, 0.25 μmole S in 1 mL (250 μM), 37 °C, mean ± SD, n = 4; read-out: Ki, S ligand, Rat hypothalamus
Description: as §4, §5

[6] = 1H-NMR titration of template/functional monomer complexation; format: binding; settings: d6-DMSO, 25 °C
Excerpt: A mixture of methanol and water (4:1, v/v) was chosen as the porogen solvent for the D and S templates, as the hydrochloride salts were soluble only in polar solvents. The strength and positioning of the monomer-template interactions are of importance in developing materials with good molecular recognition properties. For the current work, the functional monomers and cross-linker had been constructed into the MIP structure with a view toward obtaining an efficient recognition system in a polar medium. MAA and ACM were generally used as functional monomers for the imprinting process. Both D and S have a phenolic hydroxyl and the nitrogen atom(s) of the amine group(s) acts as a hydrogen donor-acceptor moiety for binding functional monomers with a corresponding hydrogen bonding pattern. […] However, the huge excess of water and methanol that would be form H-bonds in competition with template and monomer, would reduce binding energy between template and monomer. […] The MBAA cross-linker also forms hydrogen bonds with the carboxylic acid and amino groups of the templates. Figure 2 illustrates the dual dopamine/serotonin molecular recognition site generation in this work.
The change in chemical shifts of proton resonances as a function of D (or S) concentrations was studied in DMSO-d6.

[7] = test system: dopamine receptors derived from rat hypothalamus; settings: D ligand, 50 mM Tris HCl, 37 °C, mean ± SD, n = 3
Description: as §4

[8] = test system: serotonin receptors derived from rat hypothalamus; assay: Saturation binding of S ligand to rat hypothalamus receptor (Scatchard); design: species or system male-Wistar rat; settings: 50 mM Tris HCl, 37 °C, mean ± SD
Description: as §4

With `CC1=C[C@@H]2c3cccc4[nH]cc(c34)C[C@H]2N(C)C1` [Agroclavine, agroclavine] the “binding with DS-MIP” value ([1]; DS-MIP 2.5 mg/mL, ergot 2.5 μg/mL) was 70%, the Ki [2] was 0.4 ± 0.01 µM and the Ki [3] was 5.31 ± 0.22 µM. The Ki [4] was 1.5 ± 0.2 nM and the Ki [5] was 0.0012 ± 0.0001 µM.

For `NCCc1ccc(O)c(O)c1` [D, Dopamine hydrochloride], the Kd ([6]; 1:1 complex of D with single monomer, read-out: apparent dissociation constant (app. Kdiss) of complex with ACM) was 1980 ± 100 µM, the Kd ([6]; 1:1 complex of D with single monomer, read-out: apparent dissociation constant (app. Kdiss) of complex with MAA) was 2120 ± 200 µM and the “receptor binding (Bmax)” value [7] was 1.50 ± 0.09 pmol/mg protein. The Kd ([7]; read-out: dissociation constant (Kd)) was 0.00053 ± 0.00015 µM.

With `CC(C)[C@H]1C(=O)N2CCC[C@H]2[C@]2(O)O[C@](NC(=O)[C@@H]3C=C4c5cccc6[nH]cc(c56)C[C@H]4N(C)C3)(C(C)C)C(=O)N12` [Ergocornine, ergocornine] the “binding to DS-MIP, fold lower than agroclavine” value [1] was “about 2 fold”, the Ki [2] was 217 ± 2.59 µM and the Ki [3] was 27.2 ± 0.78 µM. For the same molecule, the Ki [4] was 10.4 ± 0.2 nM and the Ki [5] was 0.02 ± 0.0001 µM.

In the case of `CC(C)[C@@]1(NC(=O)[C@@H]2C=C3c4cccc5[nH]cc(c45)C[C@H]3N(C)C2)O[C@@]2(O)[C@@H]3CCCN3C(=O)[C@H](Cc3ccccc3)N2C1=O` [Ergocristine, ergocristine], the “binding to DS-MIP, fold lower than agroclavine” value [1] is reported as “about 2 fold”, the Ki [2] is reported as 141 ± 1.47 µM and the Ki [3] is reported as 19.3 ± 0.6 µM. For the same molecule, the Ki [4] was 7.6 ± 0.1 nM and the Ki [5] was 0.0068 ± 0.0002 µM.

For `CC(C)C[C@H]1C(=O)N2CCC[C@H]2[C@]2(O)O[C@](NC(=O)[C@@H]3C=C4c5cccc6[nH]cc(c56)C[C@H]4N(C)C3)(C(C)C)C(=O)N12` [Ergocryptine, ergocryptine], the “binding to DS-MIP, fold lower than agroclavine” value [1] was “about 2 fold”, the Ki [2] was 124.9 ± 1.22 µM and the Ki [3] was 24.9 ± 0.69 µM. For the same molecule, the Ki [4] was 2.8 ± 0.2 nM and the Ki [5] was 0.01 ± 0.0004 µM.

With `C[C@@H](CO)NC(=O)[C@@H]1C=C2c3cccc4[nH]cc(c34)C[C@H]2N(C)C1` [Ergonovine, ergonovine maleate] the “binding to DS-MIP, fold lower than agroclavine” value [1] was ~ 1.25 fold, the Ki [2] was 69.57 ± 0.51 µM and the Ki [3] was 14.7 ± 0.29 µM. It also gave a Ki [4] of 2.5 ± 0.1 nM and a Ki [5] of 0.0012 ± 0.0001 µM.

In the case of `CCCN1C[C@H](CSC)C[C@@H]2c3cccc4[nH]cc(c34)C[C@H]21` [Pergolide, pergolide mesylate], the “binding to DS-MIP, fold lower than agroclavine” value [1] is reported as ~ 1.25 fold, the Ki [2] is reported as 0.2 ± 0.01 µM and the Ki [3] is reported as 12.78 ± 0.09 µM. The Ki [4] was 0.7 ± 0.1 nM and the Ki [5] was 0.006 ± 0.0002 µM.

Molecule `NCCc1c[nH]c2ccc(O)cc12` [S, serotonin hydrochloride] has a Kd ([6]; S template, 1:1 complex, read-out: app. Kdiss with MAA, template's hydroxyl group) of 680 ± 100 µM, a Kd ([6]; S template, 1:1 complex, read-out: app. Kdiss with MAA, template's indolyl amino group) of 920 ± 100 µM and a Kd ([6]; S template, read-out: app. Kdiss with ACM, template's hydroxyl group) of 190 ± 100 µM. The Kd ([6]; S template, read-out: app. Kdiss with ACM, template's indolyl amino group) was 430 ± 100 µM, the “receptor binding (Bmax)” value ([8]; n = 3) was 1.11 ± 0.01 pmol/mg protein and the Kd ([8]; n = 3, read-out: dissociation constant (Kd)) was 0.00011 ± 1e-05 µM.

With `CCN(CC)C(=O)N[C@H]1C[C@@H]2c3cccc4[nH]cc(c34)C[C@H]2N(C)C1` [Terguride, terguride] the “binding to DS-MIP, fold lower than agroclavine” value [1] was ~ 1.25 fold, the Ki [2] was 0.14 ± 0.01 µM and the Ki [3] was 7.79 ± 0.17 µM. It also gave a Ki [4] of 0.03 ± 0.005 nM and a Ki [5] of 0.0013 ± 0.0001 µM.
